Results as given in PubChem BioAssay (NCI).
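Exposure lasted 48 hours, with cells grown in 96-well plates and compounds tested at five concentrations. GI50 marks 50% less growth. TGI is the concentration that stops growth completely.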

Experiments:
Test in all cases: DTP human tumour cell line panel, 48 h
OVCAR-5 ovarian = system: OVCAR-5 ovarian
SK-MEL-5 melanoma = system: SK-MEL-5 melanoma
HCT-15 colon = system: HCT-15 colon
CCRF-CEM leukemia = system: CCRF-CEM leukemia
PC-3 prostate = system: PC-3 prostate
HOP-62 NSCLC = system: HOP-62 NSCLC
OVCAR-4 ovarian = system: OVCAR-4 ovarian
MDA-MB-435 = system: MDA-MB-435
K-562 leukemia = system: K-562 leukemia
SF-539 CNS = system: SF-539 CNS

SMILES	TGI (OVCAR-5 ovarian)	TGI (SK-MEL-5 melanoma)	TGI (HCT-15 colon)	TGI (CCRF-CEM leukemia)	TGI (PC-3 prostate)	TGI (HOP-62 NSCLC)	TGI (OVCAR-4 ovarian)	TGI (MDA-MB-435)	TGI (K-562 leukemia)	TGI (SF-539 CNS)	GI50 (OVCAR-5 ovarian)	GI50 (SK-MEL-5 melanoma)	GI50 (HCT-15 colon)	GI50 (CCRF-CEM leukemia)	GI50 (PC-3 prostate)	GI50 (HOP-62 NSCLC)	GI50 (OVCAR-4 ovarian)	GI50 (MDA-MB-435)	GI50 (K-562 leukemia)	GI50 (SF-539 CNS)
O=[N+]([O-])c1ccc(S(=O)(=O)Cc2ccccc2)c2nonc12	> 100 µM	36.5 µM	51.7 µM	67.8 µM	34.6 µM	43.1 µM	34.1 µM	40.4 µM	76.7 µM	35.5 µM										
CN1C(Cl)=NS(=O)(=O)c2ccccc21	> 100 µM	> 100 µM	> 100 µM	> 100 µM	> 100 µM	> 100 µM	> 100 µM	> 100 µM	> 100 µM	> 100 µM										
CCc1nc(N)nc(N)c1-c1ccc(Cl)c(N=CN(C)C)c1	> 100 µM	> 100 µM	> 100 µM	97.6 µM	> 100 µM	> 100 µM	> 100 µM	> 100 µM	> 100 µM	> 100 µM										
C=CS(=O)(=O)CCN1CC1	> 10 µM	> 10 µM	> 10 µM	> 10 µM	> 10 µM	> 10 µM	> 10 µM	> 10 µM	> 10 µM	> 10 µM										
CCOC(=O)c1c(C)c(C)n2c1NC(=O)C2	> 100 µM	> 100 µM	> 100 µM	> 100 µM	> 100 µM	> 100 µM	> 100 µM	> 100 µM	> 100 µM	> 100 µM										
CC1=C(/C=C/C(C)=C/C=C/C(C)=C/CO)C(C)(C)CCC1	61.2 µM	32 µM	> 100 µM	46.4 µM	> 100 µM	47.5 µM	> 100 µM	62.4 µM	> 100 µM	34.3 µM										
ClCc1ccc(Cn2cnc3c(Cl)nc(Cl)nc32)cc1	34.5 µM	19.2 µM	3.77 µM	4.53 µM	7.17 µM	5.09 µM	18.8 µM	25.1 µM	66.5 µM	31.1 µM	18.2 µM	6.49 µM	1.86 µM	1.94 µM	2.7 µM	2.19 µM	4.91 µM	12.6 µM	23.3 µM	17.1 µM
Cn1c(=O)c(Oc2ccc(F)cc2F)cc2cnc(NCCS(C)(=O)=O)nc21	> 25 µM	> 25 µM	> 25 µM	> 25 µM	> 25 µM	> 25 µM	> 25 µM	> 25 µM	> 25 µM	> 25 µM	> 25 µM	> 25 µM	> 25 µM	> 25 µM	> 25 µM	> 25 µM	> 25 µM	> 25 µM	> 25 µM	> 25 µM
COc1ccc(-c2nn(-c3cccc(NC(=O)c4ccc(N5CCOCC5)c(C(F)(F)F)c4)c3)cc2-c2ccncc2)cc1Cl	> 50 µM	> 50 µM	> 50 µM	> 50 µM	> 50 µM	> 50 µM	> 50 µM	35 µM	> 50 µM	36.3 µM	> 50 µM	6.4 µM	2.99 µM	2.92 µM	3.49 µM	11.4 µM	36.2 µM	2.6 µM	1.89 µM	2.66 µM
C=C1c2c(Cl)ccc(O)c2C(O)=C2C(=O)[C@]3(O)C(O)=C(C(N)=O)C(=O)[C@@H](N(C)C)[C@@H]3[C@@H](O)[C@H]12	25.4 µM	1.57 µM	> 50 µM	39.6 µM	31.4 µM	3.1 µM	9.66 µM	7.97 µM	> 50 µM	4.61 µM	2.09 µM	0.801 µM	1.44 µM	1.45 µM	1.34 µM	0.984 µM	0.347 µM	1.53 µM	1.66 µM	1.32 µM
COC(=O)[C@@H](C)C[C@H](Cc1ccccc1)NC(=O)c1csc([C@@H](C[C@H](C(C)C)N(C)C(=O)[C@H](C)NC(=O)[C@H]2CCCCN2C)OC(C)=O)n1	> 25 µM	> 25 µM	> 25 µM	> 25 µM	> 25 µM	> 25 µM	> 25 µM	0.522 µM	> 25 µM	20.6 µM	9.48 µM	0.86 µM	3.37 µM	1.05 µM	0.821 µM	3.27 µM	2.05 µM	0.121 µM	0.278 µM	1.42 µM
CCn1c2ccccc2c2cc(C(O)c3cccc4ncccc34)ccc21 (stereo not given)	> 100 µM	1.57 µM	12.1 µM	> 100 µM	> 85.7 µM	> 73.3 µM	87.3 µM	0.06 µM	10.9 µM	0.224 µM	3.25 µM	0.0465 µM	0.0409 µM	0.0484 µM	0.0413 µM	0.0507 µM	0.318 µM	0.0215 µM	0.0389 µM	0.0346 µM
Cn1cnc([N+](=O)[O-])c1Sc1ncn[nH]1	> 100 µM	> 100 µM	> 100 µM	> 100 µM	> 100 µM	> 100 µM	> 100 µM	> 100 µM	> 100 µM	> 100 µM	> 100 µM	> 100 µM	70.1 µM	28.6 µM	> 100 µM	> 100 µM	72 µM	> 100 µM	32.3 µM	> 100 µM
CCN(CC)CCOc1ccc(C(=O)/C=C\c2ccc(Cl)cc2Cl)cc1	27.2 µM	12.3 µM	5.16 µM	9.09 µM	14.5 µM	24.9 µM	16.6 µM	7.36 µM	9.13 µM	16.4 µM	10.3 µM	3.14 µM	2.15 µM	2.57 µM	4.1 µM	11 µM	3.82 µM	2.56 µM	2.41 µM	4.05 µM
O=C1OC(CN2CCOCC2)CN1/N=C/c1ccc([N+](=O)[O-])o1 (stereo not given)	> 100 µM	63 µM	39.2 µM	> 100 µM	> 100 µM	> 100 µM	> 100 µM	33.3 µM	> 100 µM	> 100 µM										
